# Experimental data taken from patent US20220111034A1, “VIRUS COMPOSITIONS” (priority 2019, published 2022).
# Key:
# JAM-A = experiment: FD-based AFM single-virus force spectroscopy on JAM-A-coated model surfaces; assay type: binding; conditions: for change in JAM-A-T3SA− binding or multivalent interactions: 1 mM glycan injected, FIG. 6a-c
# Description: (§1) NHS-PEG27-acetal linkers were used to functionalize AFM tips as described (Gruber. Crosslinkers and Protocols for AFM Tip Functionalization. https://wwwjku.at/institut-fuer-biophysik/forschung/linked, 2018; Wildling et al. Linking of sensor molecules with amino groups to aminofunctionalized AFM tips. Bioconjug. Chem. 2011, vol. 22, 1239-1248). AFM tips (PFQNM-LC and MSCT probes, Bruker) were immersed in chloroform for 10 min, rinsed with ethanol, dried with a stream of filtered nitrogen, cleaned for 10 min using an ultraviolet radiation and ozone (UV-0) cleaner (Jetlight), and immersed overnight in an ethanolamine solution (3.3 g of ethanolamine hydrochloride in 6.6 mL of DMSO). The cantilevers were washed three times with DMSO, and two times with ethanol and dried with nitrogen. To ensure a low grafting density of the linker on the AFM tip, 1 mg of acetal-PEG27-NHS was diluted in 0.5 mL of chloroform with 30 μL of […] (Gruber, supra; Wildling et al., supra). Ethanolamine-coated cantilevers were immersed for 2 h in this solution, washed three times with chloroform, and dried with nitrogen. Cantilevers were then immersed for 10 min in 1% citric acid in milliQ water, washed three times with milliQ water, and dried with nitrogen. Virus solution (80 μL at ˜10^8 to 10^9 particles mL^−1) was pipetted onto the tips placed on Parafilm (Bemis NA) in a small plastic dish stored within an icebox. A freshly prepared solution of NaCNBH3 (2 μL at ˜6% wt. in 0.1 M NaOH(aq)) was gently mixed into the virus solution, and the cantilever chips were gently positioned with the cantilevers extending into the virus drop. The icebox was incubated at 4° C. for 1 h. Then, 5 μL of 1 M ethanolamine solution (pH 8) was gently mixed into the drop to quench the reaction. […]
# His6-tagged JAM-A (Bio-Connect Life Science) was immobilized using NTA-His6 binding chemistry, as described (Dupres et al. 2005, supra; Dufrêne. Life at the nanoscale: atomic force microscopy of live cells. Pan Stanford Publishing, 2011). […] The thickness was measured as described for sialic-acid-coated model surfaces.
# AFM Nanoscope Multimode 8 (Bruker) was used (Nanoscope software v9.1) to conduct FD-based AFM. Virus-functionalized MSCT-D probes (with spring constants calculated using thermal tune, ranging from 0.024 to 0.043 N m^−1) (Butt & Jaschke. Calculation of thermal noise in atomic-force microscopy. Nanotechnol. 1995, vol. 6, 1-7) were used to record force curves from 5×5 μm arrays in the force-volume (contact) mode. […]
# Mice = experiment: Infection of mice by reovirus (Example 7); assay type: in vivo; conditions: co-administered with the virus
# [1] = system: Lec2, Lec2-JAM-A, CHO and CHO-JAM-A cells; experiment: Infection of in vitro cultured cells by reovirus (Example 6); assay type: cell-based; conditions: co-administered with the virus; for effect on infectivity of T3SA+ towards Lec2-JAM-A and CHO-JAM-A: compared to T3SA+ without glycan
# Description: T3SA+ and T3SA− reovirus stocks are prepared and purified virions obtained as set forth in Example 1. Lec2, Lec2-JAM-A, CHO and CHO-JAM-A cells are prepared and cultured as set forth in Example 1.
# The cells are infected with the reovirus at a suitable multiplicity of infection (MOI) in batch suspensions or in monolayers and infectivity is analysed by an appropriate assay, such as quantification of viral protein expression in infected cells or a plaque assay.
# σ1-α-SA complex = biological target: T1, σ1-α-SA complex (Reovirus type 3, UniProt P03528); experiment: FD-based AFM single-virus force spectroscopy on α-SA-coated model surfaces; assay type: binding; conditions: injection of 1 mM free glycan, FIG. 3b
# T1 construct: made in house; host or cells: L929 cells (virus-infected)
# T1 sequence (P03528 1-455): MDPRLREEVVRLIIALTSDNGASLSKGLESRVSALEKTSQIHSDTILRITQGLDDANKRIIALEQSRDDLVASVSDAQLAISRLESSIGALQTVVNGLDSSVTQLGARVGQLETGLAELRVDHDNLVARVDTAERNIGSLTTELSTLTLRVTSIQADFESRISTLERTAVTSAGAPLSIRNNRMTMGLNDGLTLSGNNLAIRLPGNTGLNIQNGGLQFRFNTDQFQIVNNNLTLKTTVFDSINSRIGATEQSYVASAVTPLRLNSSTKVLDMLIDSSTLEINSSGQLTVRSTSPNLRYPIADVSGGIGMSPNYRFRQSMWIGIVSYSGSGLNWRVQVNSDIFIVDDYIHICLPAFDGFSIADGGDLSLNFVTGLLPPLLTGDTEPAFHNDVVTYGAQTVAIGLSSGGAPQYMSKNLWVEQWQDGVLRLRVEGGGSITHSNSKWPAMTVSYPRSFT
# Description: as §1, with “reaction. The icebox was incubated at 4° C. for an additional 10 min, and the cantilever chips were removed, washed three times in ice-cold PBS, and stored in individual wells of a multiwell dish containing 2 mL of ice-cold virus buffer (150 mM NaCl, 15 mM MgCl2, 10 mM Tris, pH adjusted to 7.4) per well until used in AFM experiments.” for “reaction.”
Compound,"effect on the overall binding of T3SA+ to JAM-A (JAM-A; 1 mM glycan, FIG. 5d)",effect on infectivity of T3SA+ in mice (Mice),effect on infectivity of T3SA+ towards Lec2-JAM-A and CHO-JAM-A [1],competition with T3SA+ binding to SA (σ1-α-SA complex),"change in T3SA+ISVP-JAM-A multivalent binding behavior (JAM-A; 1 mM free glycan, FIG. 16)",change in JAM-A-T3SA− binding or multivalent interactions (JAM-A),effect on infectivity of T3SA− in mice (Mice),effect on infectivity of T3SA− towards Lec2-JAM-A or CHO-JAM-A [1]
"CC(=O)N[C@H]1[C@H](O[C@H]2[C@@H](O)[C@@H](CO)O[C@@H](O[C@H]3[C@H](O)[C@@H](O)C(O)O[C@@H]3CO)[C@@H]2O)O[C@H](CO)[C@@H](O[C@@H]2O[C@H](CO)[C@H](O)[C@H](O)[C@H]2O)[C@@H]1O (mixture of isomers) [LNnT, lacto-N-neotetraose, reference compound]",had no effect,does not affect infectivity,does not affect infectivity,but not LNnT strongly competed,,,,
"CC(=O)N[C@H]1[C@H]([C@H](O)[C@H](O)CO)OC(O)(C(=O)O)C[C@@H]1O (some centres unmarked) [Neu5Ac, N-acetylneuraminic acid]",,significantly increase infectivity,significantly increase infectivity,strongly competed,does not induce any change,does not induce any change,do not affect infectivity,do not affect infectivity
sialyl-lacto-N-tetraose a [LSTa],,significantly increase infectivity,significantly increase infectivity,strongly competed,,does not induce any change,do not affect infectivity,do not affect infectivity
